Measurements taken from article PMC10296720, “A Truncated 14-Amino-Acid Myelin Protein-Zero-Targeting Peptide for Fluorescence-Guided Nerve-Preserving Surgery” (Biomolecules, 2023).
≈ marks a conversion by molar mass, not a printed value. Where a SMILES comes first, the peptide text is derived from it. The star is where a group is joined. X2 = CC1(C)C(=CC=CC=CC2=[N+](CCCCS(=O)(=O)[O-])c3ccc(S(=O)(=O)O)cc3C2(C)C)N(CCCCCC(=O)NCCN2C(=O)CC(*)C2=O)c2ccc(S(=O)(=O)O)cc21

Assays:
Solubility = format: physicochemical; conditions: as previously described (refs 27, 31, 36)
Experimental: (§1) Determination of the chemical and photophysical properties (LogP, solubility, serum binding, net charge, and brightness) was performed as previously described.

[1] = system: P0-expressing RT4 D6P2T myelinating Schwannoma cells; experiment: P0 staining and co-localization via fluorescence confocal microscopy; format: cell-based; conditions: 1 μM tracer, 1 h at 4 °C
Experimental: All chemicals were received from Actu-All Chemical (Oss, The Netherlands), Sigma Aldrich (St. Louis, MO, USA), Tokyo Chemical Industry (Tokyo, Japan), Biosolve BV (Valkenswaard, The Netherlands), and VWR Chemicals (Solon, OH, USA) and used without further purification. DMF and DMSO were dried over 4 Å molecular sieves for at least 24 h prior to use. Preparative high-pressure liquid chromatography (prep-HPLC) was performed on a Waters HPLC system (Waters Chromatography B.V., Etten-Leur, The Netherlands) using a 2545 quaternary gradient module pump and a 2489 UV detector. […] Absorption spectrometry was performed using a UV1280 UV–vis spectrometer (Shimadzu, Kyoto, Japan), and fluorescence spectrometry was performed using an LS55 (Perkin Elmer, Waltham, MA, USA). Fluorescence confocal imaging was performed using an SP8 WLL confocal microscope (Leica Microsystems, Wetzlar, Germany). The obtained images were analyzed using Leica Confocal Software (Leica Microsystems). The mean fluorescence intensity values per sample were measured using an LSRII flow cytometer (BD Biosciences, Franklin Lakes, NJ, USA) with APC-A settings (635 nm laser and 750 nm long-pass filter) for a Cy5 dye. […]
Semi-quenatitative assessment of the level of co-staining within the fluorescence […]

Brightness (in HSA) = format: physicochemical, human; conditions: in human serum albumin
Experimental: as §1

Serum binding = format: in vitro ADME; conditions: as previously described (refs 27, 31, 36)
Experimental: as §1

LogP = format: physicochemical; conditions: as previously described (refs 27, 31, 36)
Experimental: as §1

[2] = target: myelin protein zero (Homo sapiens) (UniProt P25189); conditions: cited from earlier work
Chain of myelin protein zero (Homo sapiens) (P25189 30-153): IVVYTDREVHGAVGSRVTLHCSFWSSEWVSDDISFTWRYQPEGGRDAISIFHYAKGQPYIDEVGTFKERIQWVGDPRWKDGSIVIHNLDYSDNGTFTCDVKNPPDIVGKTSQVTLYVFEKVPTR

Compound | Solubility (Solubility) [µM] | P0-related staining (pattern and intensity) ([1]; confocal microscopy, in words) | Brightness (in HSA) (Brightness (in HSA)) | fraction unbound (Serum binding) | Co-localization factor (scale: 0-1), Cy5 vs Lysosomes ([1]; N = 3 per tracer, semi-quantitative, Image J) | LogP (LogP) | Kd [2] [nM]
KNPPDIVGKTSQVTLYVFEKVPTRY [Cy5-P0_101–125] | 172 | in agreement with the location of P0 on the membrane | 67,760 | – | – | – | –
CC[C@H](C)[C@H](NC(=O)[C@H](CC(=O)O)NC(C)=O)C(=O)N[C@H](C(=O)NCC(=O)N[C@@H](CCCCN)C(=O)N[C@H](C(=O)N[C@@H](CO)C(=O)N[C@@H](CCC(N)=O)C(=O)N[C@H](C(=O)N[C@H](C(=O)N[C@@H](CC(C)C)C(=O)N[C@@H](Cc1ccc(O)cc1)C(=O)N[C@H](C(=O)N[C@@H](Cc1ccccc1)C(=O)N[C@@H](CCC(=O)O)C(=O)N[C@@H](CCCCN)C(=O)N[C@H](C(=O)N1CCC[C@H]1C(=O)N[C@H](C(=O)N[C@@H](CCCNC(=N)N)C(=O)N[C@@H](Cc1ccc(O)cc1)C(=O)N[C@@H](CSC1CC(=O)N(CCNC(=O)CCCCCN2C(=CC=CC=CC3=[N+](CCCCS(=O)(=O)[O-])c4ccc(S(=O)(=O)O)cc4C3(C)C)C(C)(C)c3cc(S(=O)(=O)O)ccc32)C1=O)C(N)=O)[C@@H](C)O)C(C)C)C(C)C)[C@@H](C)O)C(C)C)[C@@H](C)O)C(C)C (stereo partly drawn) [Cy5-P0_105–125] (Ac-DIVGKTSQVTLYVFEKVPTRYC(X2)-NH2; N-terminus and C-terminus assumed) | 9 (≈ 31.3 µg/mL) | – | 157,300 | 0.44 | low | −0.60 ± 0.04 | –
Cy5-P0101-125 101-125 (from UniProt P25189) | – | – | – | – | – | – | 104
